Reference: patent EP4489718B1, “METHOD FOR ENCAPSULATING A HYDROPHOBIC COMPOUND, SUSPENSION OF STRUCTURED LIPID PARTICLES ACCORDING TO THIS METHOD, AND USES OF SAID SUSPENSION” (SEDERMA, priority 2022, dated 2023)
Like-named read-outs stand apart in the source and are kept apart here.

What was measured:
[1] = assay type: physicochemical
Experimental: Aim: to study whether the encapsulated retinol according to the invention supported UV irradiation and to compare with the non-encapsulated free retinol (solubilized in soybean oil).
Protocol: two samples, one containing free retinol and the other encapsulated retinol, were irradiated for 1 hour at about 40cm from the bulb of the solar lamp.
Retinol assay: by HPLC (UV detection at 325nm), the samples having been solubilized and diluted in isopropyl alcohol and the quantification having been carried out using a standard curve ranging from 2 to 150 ppm of retinol.

[2] = Stability study on storage (retinol content by HPLC, colour, pH, particle size); assay type: physicochemical
Experimental: Samples were diluted in isopropanol. […] A calibration curve was performed. For an accelerated stability study, suspension samples according to the invention were stored for 365 days at room temperature (RT), 180 days at 40°C, 90 days at 5°C and 60 days at 50°C. The long-term stability study was evaluated at RT. Samples were analysed for characterization parameters at test times 0, 7, 14, 21, 30, 60, and 90, 180 and 365 days, depending on each storage condition. At each analysis time, a new bottle was opened for the first time. To assess the impact of product handling during stability, an additional bottle of each sample was stored at RT. This same bottle was opened and handled under an air atmosphere at each analysis time (7, 14, 21, 30, 60 and 90 days for all samples for RT) and the results were compared to the cases of the bottles newly opened for each analysis. All samples were handled without direct contact with light and under normal air conditions. No inert gas was used either to fill the bottles or to handle any sample.

[3] = physchem; assay type: physicochemical
Source text: The Franz diffusion cell is the device most used to examine the release profiles of an active ingredient encapsulated in the capsules according to the invention. […] The product to be tested is placed in the upper chamber while the lower chamber collects the recipient fluid which has passed through the membrane. The rate and mechanism of release can be obtained by mathematical modelling. The rate can be calculated using the following first-order equation: […] And the release mechanism can be obtained using the Korsmeyer-Peppas model equation: Mt/M∞ = […] [formula] In which: • t is the release time • Mt is the quantity of released active at t time • M∞ is the total quantity of released active • Mt/M∞ being the fraction of released active at t time; • k is a kinetic constant, a measure of the release rate; and • n the diffusional exponent which gives an indication of the release mechanism of the active and takes on different values depending on the geometry of the release device. […] Selected membrane: […] Eight Franz cells containing the release medium and the membrane were prepared and placed in a temperature-controlled water bath of 32°C. […] The amount added to the membrane was 20% of the saturation concentration to ensure flow conditions. Samples were taken at selected intervals of 0.5 to 76 h with replacement of fresh medium. All samples collected were analysed for retinol content by HPLC on the day of the experiment. […] The mean of the four cells in both cases was plotted against time and used to apply the mathematical models. […] The release mechanism was obtained by the Korsmeyer-Peppas equation.

Actual content of retinol (in weight %) ([1]; After 1h of irradiation, about 40cm from solar lamp): 5.72 +/- 0.07 weight % | Actual content of retinol (in weight %) ([1]; Control (not irradiated)): 10.49 +/- 0.34 weight % | Retinol content in w/w % ([2]; storage 5°C, 0 days, suspension: new bottle for each test): 3.11 w/w % | Retinol content in w/w % ([2]; storage 5°C, 7 days, suspension: new bottle for each test): 3.14 w/w % | Retinol content in w/w % ([2]; storage 5°C, 14 days): 2.77 w/w % | Retinol content in w/w % ([2]; storage 5°C, 21 days): 0.42 w/w % | Retinol content in w/w % ([2]; storage 5°C, 30 days, suspension: new bottle for each test): 0.0 w/w % | Retinol content in w/w % ([2]; storage 40°C, 0 days, suspension: new bottle for each test): 3.11 w/w % | Retinol content in w/w % ([2]; storage 40°C, 7 days, suspension: new bottle for each test): 2.79 w/w % | Retinol content in w/w % ([2]; storage 40°C, 14 days): 0.89 w/w % | Retinol content in w/w % ([2]; storage 40°C, 21 days): 0.0 w/w % | Retinol content in w/w % ([2]; storage 40°C, 30 days, suspension: new bottle for each test): 0.0 w/w % | Retinol content in w/w % ([2]; storage 50°C, 0 days, suspension: new bottle for each test): 3.11 w/w % | Retinol content in w/w % ([2]; storage 50°C, 7 days, suspension: new bottle for each test): 2.51 w/w % | Retinol content in w/w % ([2]; storage 50°C, 14 days, suspension: new bottle for each test): 0.10 w/w % | Retinol content in w/w % ([2]; storage 50°C, 21 days, suspension: new bottle for each test): 0.0 w/w % | Retinol content in w/w % ([2]; storage 50°C, 30 days, suspension: new bottle for each test): 0.0 w/w % | Retinol content in w/w % ([2]; storage RT, 0 days, suspension: new bottle for each test): 3.11 w/w % | Retinol content in w/w % ([2]; storage RT, 7 days, suspension: new bottle for each test): 2.76 w/w % | Retinol content in w/w % ([2]; storage RT, 14 days, suspension: new bottle for each test): 2.40 w/w % | Retinol content in w/w % ([2]; storage RT, 21 days, suspension: new bottle for each test): 0.23 w/w % | Retinol content in w/w % ([2]; storage RT, 30 days, suspension: new bottle for each test): 0.25 w/w % | retinol degradation peaks in the chromatograms of the release samples [3]: degradation peaks from 10h | half-life ([3]; 3% tween 80 in water): 2.03 h | release rate ([3]; Franz cell, PVDF 0.1 µm membrane, 3% Tween 80 / 97% water, 32°C, first-order model): 0.00089 min⁻¹
Compound: CC1=C(/C=C/C(C)=C/C=C/C(C)=C/CO)C(C)(C)CCC1 [Free retinol, retinol]
